PubChem BioAssay AID328 (DTP/NCI, 2004)
Several values for one entry are separate records, joined by “and”; a condition that tells them apart may be missing. Equal entries are not always repeated. Toxic doses and inconclusive results are not listed. The calls were made as follows: active = survival T/C of 150% or more; inactive = T/C below 125% in these data.

Test system: BDF1 mice, P388 leukemia ip, median survival T/C
Experiment: NCI In Vivo Anticancer Drug Screen. Data for tumor model P388 Leukemia (intraperitoneal) in B6D2F1 (BDF1) mice
Details: endpoint: median survival time, higher = longer survival
Protocol: The antitumor activity of compounds was measured in mice bearing transplantable tumors. Survival or tumor size were measured and the results are expressed as the measurement made in the treated group (T) divided by the measurement made in the vehicle treated control group (C). The tumor model used in this assay is P388 Leukemia (intraperitoneal) in B6D2F1 (BDF1) mice

[1] = dose: 100.0 mg/kg/injection, schedule: Q01DX009 (ip), vehicle: other
[2] = dose: 50.0 mg/kg/injection, schedule: Q01DX009 (ip), vehicle: saline with Tween-80
[3] = dose: 100.0 mg/kg/injection, schedule: Q01DX009 (ip), vehicle: saline with Tween-80
[4] = dose: 200.0 mg/kg/injection, schedule: Q01DX009 (ip), vehicle: saline with Tween-80
[5] = dose: 400.0 mg/kg/injection, schedule: Q01DX009 (ip), vehicle: saline with Tween-80
[6] = dose: 100.0 mg/kg/injection, schedule: Q04DX003 (ip), vehicle: saline with Tween-80
[7] = dose: 200.0 mg/kg/injection, schedule: Q04DX003 (ip), vehicle: saline with Tween-80
[8] = dose: 400.0 mg/kg/injection, schedule: Q04DX003 (ip), vehicle: saline with Tween-80
[9] = dose: 25.0 mg/kg/injection, schedule: Q04DX003 (ip), vehicle: saline with Tween-80
[10] = dose: 50.0 mg/kg/injection, schedule: Q04DX003 (ip), vehicle: saline with Tween-80
[11] = dose: 200.0 mg/kg/injection, schedule: Q01DX009 (ip), vehicle: saline
[12] = dose: 400.0 mg/kg/injection, schedule: Q01DX009 (ip), vehicle: saline
[13] = dose: 100.0 mg/kg/injection, schedule: Q01DX009 (ip), vehicle: saline
[14] = dose: 25.0 mg/kg/injection, schedule: Q01DX009 (ip), vehicle: saline with Tween-80

Measured: T/C

O=C1c2c(Cl)cccc2C(O)(c2ccccc2)c2cccc(Cl)c21
inactive: dose: 50.0 mg/kg/injection, schedule: Q01DX009 (ip), vehicle: other 100 % of control | [1] 92 % of control | dose: 200.0 mg/kg/injection, schedule: Q01DX009 (ip), vehicle: other 105 % of control

CCCCCCCCCC(O)CCCCCC (stereo unspecified)
inactive: [1] 105 % of control | dose: 100.0 mg/kg/injection, schedule: Q04DX003 (ip), vehicle: other 95 % of control | dose: 200.0 mg/kg/injection, schedule: Q04DX003 (ip), vehicle: other 118 % of control

NC(c1ccccc1)S(=O)(=O)O (stereo unspecified)
inactive: [2] 115 % of control | [3] 121 % of control | [4] 93 % of control | [5] 95 % of control

O=[N+]([O-])c1ccc(S(=O)(=O)Nc2ccccc2-c2ccccc2)cc1
inactive: [6] 96 % of control | [7] 96 % of control | [8] 100 % of control

C=CCC1(CCC)C(=O)NC(=O)NC1=O
inactive: [9] 91 % of control | [10] 91 % of control | [6] 95 % of control

CC(=O)c1ccc(-c2ccccc2)cc1
inactive: [3] 100 % of control | [4] 91 % of control | [5] 95 % of control

CC[Se](CC)CC.CC[Se](CC)CC.C[CH2][Ge]([CH2]C)[O][Ge]([CH2]C)[CH2]C
inactive: [3] 107 % of control

O=C(CCC[N+](=O)[O-])c1ccccc1
inactive: dose: 50.0 mg/kg/injection, schedule: Q01DX005 (ip), vehicle: saline with Tween-80 113 % of control | dose: 100.0 mg/kg/injection, schedule: Q01DX005 (ip), vehicle: saline with Tween-80 113 % of control | dose: 200.0 mg/kg/injection, schedule: Q01DX005 (ip), vehicle: saline with Tween-80 99 % of control

CN(CCO)/N=N/c1nc[nH]c1C(N)=O
inactive: dose: 1.56 mg/kg/injection, schedule: Q01DX009 (ip), vehicle: saline 95 % of control | dose: 3.13 mg/kg/injection, schedule: Q01DX009 (ip), vehicle: saline 100 % of control | dose: 6.25 mg/kg/injection, schedule: Q01DX009 (ip), vehicle: saline 100 % of control | dose: 25.0 mg/kg/injection, schedule: Q01DX009 (ip), vehicle: saline 92 % of control | dose: 100.0 mg/kg/injection, schedule: Q04DX003 (ip), vehicle: saline 105 % of control | [11] 110 % of control | dose: 200.0 mg/kg/injection, schedule: Q04DX003 (ip), vehicle: saline 100 % of control | [12] 100 % of control | dose: 400.0 mg/kg/injection, schedule: Q04DX003 (ip), vehicle: saline 105 % of control

O=C(Nc1cccc(C(=O)Nc2ccc(C3=NCCN3)cc2)c1)c1ccc(C2=NCCN2)cc1
inactive: dose: 16.5 mg/kg/injection, schedule: Q01DX009 (ip), vehicle: saline 122 % of control

O=c1ccc2cc(OC3OC(CO)C(O)C(O)C3O)c(O)cc2o1 (stereo unspecified)
inactive: [13] 95 % of control | dose: 100.0 mg/kg/injection, schedule: Q04DX003 (ip), vehicle: alcohol 105 % of control | [11] 104 % of control | dose: 200.0 mg/kg/injection, schedule: Q04DX003 (ip), vehicle: alcohol 100 % of control | [12] 109 % of control | dose: 400.0 mg/kg/injection, schedule: Q04DX003 (ip), vehicle: alcohol 110 % of control

CCCCn1cnc2c(=S)nc[nH]c21
inactive: dose: 15.0 mg/kg/injection, schedule: Q01DX010 (ip), vehicle: water 100 % of control | dose: 16.0 mg/kg/injection, schedule: Q01DX010 (ip), vehicle: saline 100 % of control | dose: 30.0 mg/kg/injection, schedule: Q01DX010 (ip), vehicle: water 90 % of control | dose: 32.0 mg/kg/injection, schedule: Q01DX010 (ip), vehicle: saline 90 % of control and 95 % of control | dose: 64.0 mg/kg/injection, schedule: Q01DX010 (ip), vehicle: saline 104 % of control and 113 % of control | dose: 128.0 mg/kg/injection, schedule: Q01DX010 (ip), vehicle: saline 95 % of control and 104 % of control

Nc1ccc(OCCCc2c(-c3ccccc3)nc(N)[nH]c2=O)cc1
inactive: [14] 100 % of control | [2] 99 % of control | [3] 108 % of control

Cc1cc(=O)[nH]c(N/N=C/c2ccccc2O)n1
inactive: dose: 200.0 mg/kg/injection, schedule: Q01DX010 (ip), vehicle: saline 90 % of control | dose: 300.0 mg/kg/injection, schedule: Q01DX010 (ip), vehicle: saline 95 % of control | dose: 400.0 mg/kg/injection, schedule: Q01DX010 (ip), vehicle: saline 95 % of control | dose: 500.0 mg/kg/injection, schedule: Q01DX010 (ip), vehicle: saline 95 % of control

Cc1ccccc1OS(=O)(=O)c1ccccc1[N+](=O)[O-]
inactive: dose: 100.0 mg/kg/injection, schedule: Q01DX001 (ip), vehicle: saline sonified 100 % of control | dose: 200.0 mg/kg/injection, schedule: Q01DX001 (ip), vehicle: saline sonified 110 % of control | dose: 400.0 mg/kg/injection, schedule: Q01DX001 (ip), vehicle: saline sonified 105 % of control

Nc1nc(SCc2ccccn2)c2[nH]cnc2n1
inactive: dose: 20.0 mg/kg/injection, schedule: Q04DX003 (ip), vehicle: Klucel (hydroxypropylcellulose) (HPC) 104 % of control | dose: 30.0 mg/kg/injection, schedule: Q04DX003 (ip), vehicle: Klucel (hydroxypropylcellulose) (HPC) 104 % of control | dose: 44.0 mg/kg/injection, schedule: Q04DX003 (ip), vehicle: Klucel (hydroxypropylcellulose) (HPC) 104 % of control | dose: 100.0 mg/kg/injection, schedule: Q01DX009 (ip), vehicle: Klucel (hydroxypropylcellulose) (HPC) 107 % of control | dose: 200.0 mg/kg/injection, schedule: Q01DX009 (ip), vehicle: Klucel (hydroxypropylcellulose) (HPC) 92 % of control

COB(C1CCCCC1)C1CCCCC1
inactive: dose: 75.0 mg/kg/injection, schedule: Q01DX001 (ip), vehicle: saline 113 % of control | dose: 150.0 mg/kg/injection, schedule: Q01DX001 (ip), vehicle: saline 104 % of control | dose: 300.0 mg/kg/injection, schedule: Q01DX001 (ip), vehicle: saline 95 % of control

Cc1c(C)c2c(N)c3ccccc3nc2c2ccccc12
inactive: dose: 12.5 mg/kg/injection, schedule: Q01DX001 (ip), vehicle: saline with Tween-80 97 % of control | dose: 25.0 mg/kg/injection, schedule: Q01DX001 (ip), vehicle: saline with Tween-80 100 % of control and 117 % of control | dose: 50.0 mg/kg/injection, schedule: Q01DX001 (ip), vehicle: saline with Tween-80 105 % of control

CN1CCN(C(=O)c2ccc(Cl)c(Cl)c2)CC1
inactive: dose: 3.12 mg/kg/injection, schedule: Q01DX009 (ip), vehicle: saline with Tween-80 103 % of control | dose: 6.25 mg/kg/injection, schedule: Q01DX009 (ip), vehicle: saline with Tween-80 99 % of control | dose: 12.5 mg/kg/injection, schedule: Q01DX009 (ip), vehicle: saline with Tween-80 103 % of control | dose: 12.5 mg/kg/injection, schedule: Q04DX003 (ip), vehicle: saline with Tween-80 108 % of control | [14] 88 % of control | [9] 97 % of control | [2] 99 % of control | [10] 91 % of control | [3] 105 % of control | [6] 97 % of control

CCN(CC)c1ccc2cc3ccc(=[N+](CC)CC)cc-3oc2c1
inactive: dose: 2.5 mg/kg/injection, schedule: Q01DX009 (ip), vehicle: saline 120 % of control | dose: 7.5 mg/kg/injection, schedule: Q01DX009 (ip), vehicle: saline sonified 120 % of control | dose: 10.0 mg/kg/injection, schedule: Q04DX003 (ip), vehicle: saline 104 % of control

Cc1ccc(NC(=O)c2ccc([N+](=O)[O-])cc2)c(C)c1
inactive: [6] 100 % of control | [7] 104 % of control | [8] 96 % of control

CC1=CC(=O)c2c(O)ccc(O)c2C1=O
inactive: dose: 1.25 mg/kg/injection, schedule: Q01DX009 (ip), vehicle: alcohol 114 % of control | dose: 2.5 mg/kg/injection, schedule: Q01DX009 (ip), vehicle: alcohol 122 % of control

CCOC(=S)S
inactive: [13] 100 % of control | [11] 95 % of control
